# According to PMC10017155 (Aging and Disease, 2023):
# Peptide text beside a SMILES is read from it.
# Assays:
# immobilized Aβ42 = molecular target: T1, immobilized Aβ42 (Homo sapiens, UniProt P05067); test: SPR analysis of HAEE binding to immobilized Aβ42
# T1 construct: Aβ42 ([…] […]); purchased Biopeptide Co., LLC (San Diego, CA, USA); host or cells: chemical synthesis
# Procedure: (§1) All SPR measurements were carried out at 25°C using an optical biosensor Biacore 8K (GE Healthcare, USA) with CM4 optical chip. Covalent immobilization of the peptide ligands on the surface of the optical chip was performed using the sulfhydryl group of the C-terminal tetragly-cylcysteine tag. Briefly, carboxyl groups on the chip surface were activated by serial injections of mixture of 0.4 M EDC/0.1 M NHS at a flow rate of 10 μL/min for 2 min and a solution of 80 mM PDEA in 100 mM borate buffer (pH 8.5) for 4 min. Solutions of 2 μM peptides in the immobilization buffer (10 mM acetate buffer, pH 4.5) were injected for 2 min at a flow rate of 10 μL/min (three repeats). Unreacted activated groups on the chip were blocked by further injection of a solution containing 50 mM cysteine, 1 M NaCl, 0.1 M sodium acetate (pH 4.3) for 4 min at a flow rate of 5 μL/min. Possible nonspecific analyte binding to the chip surface was evaluated using a free (control) channel of the biosensor exposed to the same treatments as the working channel except peptides. SPR signals were recorded in real time in resonance units (RU; 1 RU corresponds to […]) and were presented in the form of sensorgrams showing time-dependent signal changes. […] The obtained sensorgrams were analyzed with BIAevaluation v.4.1 software.
# immobilized isoD7-Aβ42 = molecular target: T2, immobilized isoD7-Aβ42 (Homo sapiens, UniProt P05067); test: SPR analysis of HAEE binding to immobilized isoD7-Aβ42
# T2 construct: isoD7-Aβ42 (DAEFRH[isoD][…]); purchased Biopeptide Co., LLC (San Diego, CA, USA); host or cells: chemical synthesis
# Procedure: as §1
# Aβ16 = test: NMR titration, Aβ16 with HAEE and Zn2+; type: binding; settings: 278 K, pH 6.8, Zn2+
# Procedure: Peptides Aβ16, H6R-Aβ16 and isoD7-Aβ16 at the concentration of 0.2 - 8mM were dissolved in 10-20 mM bis-Tris-d19 (2,2-Bis(hydroxymethyl)-2,2′,2"-nitrilotrie-thanol-d19 with 98% ^2D enrichment) buffer solution (pH 6.8). Sodium salt of 3-(trimethylsilyl) propionic-2,2,3,3-d4 acid (DSS) at a concentration of 10-20 μM was added as the standard. NMR spectra were measured at 278 K in 90% H2O/10% D2O with Bruker AVANCE 600 MHz spectrometer equipped with triple resonance (^1H, ^13C and ^15N) pulsed field z gradient probe. 1D NMR spectra were processed and analyzed using the Mnova software (Mestrelab Research, Spain). In order to monitor peptide-peptide interactions NMR titration experiments were carried out. […] 1D spectra were recorded for each titration point.
# C. elegans CL2120 = test: Paralysis assay in C. elegans CL2120; type: in vivo; settings: for Mean fraction of paralyzed: Aβ42 or isoD7-Aβ42 40 μM, HAEE 4 mM, 25°C, mean ± SD of 3 experiments
# Procedure: C. elegans CL2120 (dvIs14 [(pCL12) unc-54::beta 1-42 +(pCL26) mtl-2::GFP]) and C. elegans CL2122 (dvIs15 [(pPD30.38) unc-54(vector) + (pCL26) mtl-2::GFP]) strains were obtained from the Caenorhabditis Genetics Center. The worms were handled according to standard methods without FUDR [18]. E. coli OP50 bacteria were grown overnight in Luria-Bertani broth and 50µl were spread atop NGM or NGMZn plates. NGMZn has 20μM ZnSO4. Seeded plates were incubated at 30°C for ~16 hours and then for 1-2 hours at 15 or 25°C before worms were transferred. Lifespan and paralysis experiments (see below) were performed at 25°C for enhanced expression of Aβ. This temperature is standard when studying the effects of Aβ on C. elegans CL2120 strain [19].
# Then, nematodes were transferred to Petri plates with NGM or NGMZn and OP-50, placed in a temperature-controlled incubator at 25°C. On the next day, worms were transferred onto similar media with a bacterial substrate and paralyzed nematodes were counted at equal time intervals. […] For the paralysis experiments, we chose the days where we could clearly distinguish between paralysis and mortality. This conformed to the third and fourth days of their adult life. While at least three repeated trials were conducted, each experiment was performed using at least 100 worms. Details regarding repeated experiments and amounts of animals used for experiments are summarized in Supplementary Table 2. Mean fraction of paralyzed worms was compared between groups with two-way ANOVA, accounting for age and treatment. Post-hoc analysis was performed with the Tukey test. Statistical analysis was performed with GraphPad Prism 9.1 software.
# T2 sequence (P05067 672-713): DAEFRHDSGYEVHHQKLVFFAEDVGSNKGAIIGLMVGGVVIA
# T1 sequence (P05067 672-713): as above
structure (smiles),measurement,setting,value
"CC(=O)N[C@@H](Cc1c[nH]cn1)C(=O)N[C@@H](C)C(=O)N[C@@H](CCC(=O)O)C(=O)N[C@@H](CCC(=O)O)C(N)=O [HAEE, Ac-HAEE-NH2] (Ac-HAEE-NH2)",Kd,immobilized Aβ42,4.1 ± 0.3 µM
same,Interaction with immobilized Aβ42 in the absence of Zn2+,"immobilized Aβ42; SPR, 10 mM HEPES, pH 6.8, no Zn2+, 25°C",no interaction
same,Interaction with immobilized isoD7-Aβ42 in the absence of Zn2+,"immobilized isoD7-Aβ42; 10 mM HEPES, pH 6.8, no Zn2+, 25°C",no interaction
same,Kd,"immobilized isoD7-Aβ42; immobilized isoD7-Aβ42, 100 µM ZnCl2, pH 6.8, 25°C",10.4 ± 0.4 µM
same,Signal at 0.2 ppm (characteristic of the dimeric form of the Aβ metal binding domain),Aβ16; 1H NMR,eliminated the signal
same,Zinc-dependent dimerization of Aβ16,Aβ16; NMR,inhibits
same,Mean fraction of paralyzed,"C. elegans CL2120; A3 (3 days old), NGM (no Zn)",5.5±0.35%
same,Fraction of paralyzed,"C. elegans CL2120; A3 (3 days old), NGM (no Zn), replicate 1",5.5%
same,Fraction of paralyzed,"C. elegans CL2120; A3 (3 days old), NGM (no Zn), replicate 2",5.2%
same,Fraction of paralyzed,"C. elegans CL2120; A3 (3 days old), NGM (no Zn), replicate 3",5.9%
same,Mean fraction of paralyzed,"C. elegans CL2120; A4 (4 days old), NGM (no Zn)",10.5±0.55%
same,Fraction of paralyzed,"C. elegans CL2120; A4 (4 days old), NGM (no Zn), replicate 1",9.9%
same,Fraction of paralyzed,"C. elegans CL2120; A4 (4 days old), NGM (no Zn), replicate 2",10.9%
same,Mean fraction of paralyzed,"C. elegans CL2120; A4 (4 days old), NGMZn (ZnSO4 20 μM)",9.5±0.65%
same,Fraction of paralyzed,"C. elegans CL2120; A4 (4 days old), NGMZn, replicate 1",10.2%
same,Fraction of paralyzed,"C. elegans CL2120; A4 (4 days old), NGMZn, replicate 2",9.5%
same,Fraction of paralyzed,"C. elegans CL2120; A4 (4 days old), NGMZn, replicate 3",8.9%
same,Effect of HAEE on isoD7-Aβ42/Zn2+-accelerated paralysis,"C. elegans CL2120; HAEE 4 mM + isoD7-Aβ42 40 μM, NGMZn",suppresses this effect
